Assay [1] concerns the target T1, AhR (Homo sapiens, UniProt P35869).
T1 sequence (P35869 11-848): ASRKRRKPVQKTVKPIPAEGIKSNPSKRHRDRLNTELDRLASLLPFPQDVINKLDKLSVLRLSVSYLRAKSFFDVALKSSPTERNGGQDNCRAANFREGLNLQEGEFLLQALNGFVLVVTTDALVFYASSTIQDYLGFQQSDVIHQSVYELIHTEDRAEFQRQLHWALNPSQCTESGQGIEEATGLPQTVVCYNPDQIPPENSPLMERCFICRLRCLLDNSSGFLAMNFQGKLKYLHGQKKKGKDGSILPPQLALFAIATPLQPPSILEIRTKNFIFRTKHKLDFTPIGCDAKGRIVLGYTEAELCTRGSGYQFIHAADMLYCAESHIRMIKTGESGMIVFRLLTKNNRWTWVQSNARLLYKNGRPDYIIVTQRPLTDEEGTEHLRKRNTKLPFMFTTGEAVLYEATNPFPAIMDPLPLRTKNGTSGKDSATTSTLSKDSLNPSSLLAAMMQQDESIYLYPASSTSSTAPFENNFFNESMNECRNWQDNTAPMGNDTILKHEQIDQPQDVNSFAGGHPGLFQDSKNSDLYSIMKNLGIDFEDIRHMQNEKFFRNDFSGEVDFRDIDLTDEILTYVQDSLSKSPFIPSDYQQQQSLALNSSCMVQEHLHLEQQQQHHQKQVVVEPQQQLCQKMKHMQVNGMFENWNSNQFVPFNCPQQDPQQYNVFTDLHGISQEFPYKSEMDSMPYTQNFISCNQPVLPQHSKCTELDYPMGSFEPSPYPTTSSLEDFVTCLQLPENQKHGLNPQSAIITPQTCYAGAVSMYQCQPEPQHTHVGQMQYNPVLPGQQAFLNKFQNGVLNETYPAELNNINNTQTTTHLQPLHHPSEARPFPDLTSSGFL
Kind of assay: AhR activation in human cell line expressing AhR, in vitro luminescence (Example 1). The settings on record: 200 PM, FIG. 5, normalized to methylcholanthrene. The class given is cell-based. As for the experimental part:
(§1) The utility of ILA and IAld in multiple host was validated by an in vitro assay. Human or canine cell lines expressing AhR were exposed to ILA or IAld at […], and AhR activation was assayed using in vitro luminescence.

Assay [2] addresses T2, AhR (Canis lupus familiaris, UniProt A0A8I3RSX6).
T2 sequence (A0A8I3RSX6 1-853): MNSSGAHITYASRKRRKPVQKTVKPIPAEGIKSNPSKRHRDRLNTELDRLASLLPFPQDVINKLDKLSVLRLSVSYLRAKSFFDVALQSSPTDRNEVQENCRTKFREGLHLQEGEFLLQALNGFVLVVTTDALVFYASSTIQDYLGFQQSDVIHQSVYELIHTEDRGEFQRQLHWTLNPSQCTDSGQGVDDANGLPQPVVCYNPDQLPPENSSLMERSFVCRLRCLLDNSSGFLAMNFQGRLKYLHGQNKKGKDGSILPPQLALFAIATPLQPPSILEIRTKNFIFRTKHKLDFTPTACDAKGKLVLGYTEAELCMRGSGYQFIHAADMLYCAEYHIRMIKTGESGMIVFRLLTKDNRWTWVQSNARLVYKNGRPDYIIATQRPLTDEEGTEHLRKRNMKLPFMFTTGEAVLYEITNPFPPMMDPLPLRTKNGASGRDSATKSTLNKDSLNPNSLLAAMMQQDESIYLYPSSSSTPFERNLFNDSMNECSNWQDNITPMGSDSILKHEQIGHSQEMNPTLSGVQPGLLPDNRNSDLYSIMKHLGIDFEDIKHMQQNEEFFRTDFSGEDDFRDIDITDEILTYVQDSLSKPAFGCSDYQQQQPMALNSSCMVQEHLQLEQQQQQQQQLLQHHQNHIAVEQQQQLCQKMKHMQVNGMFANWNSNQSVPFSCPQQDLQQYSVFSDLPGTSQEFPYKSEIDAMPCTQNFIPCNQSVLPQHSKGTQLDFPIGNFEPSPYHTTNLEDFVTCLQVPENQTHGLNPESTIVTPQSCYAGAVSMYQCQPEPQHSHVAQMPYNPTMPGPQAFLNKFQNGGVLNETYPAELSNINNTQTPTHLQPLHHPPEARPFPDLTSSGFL
Kind of assay: AhR activation in canine cell line expressing AhR, in vitro luminescence (Example 1). The class given is cell-based. The settings on record: 200 PM, FIG. 5, normalized to methylcholanthrene. On the procedure:
as §1

This passage reports AhR activation results from patent US12491220B2, “Compositions containing indole-derived metabolites and methods of use thereof” (Imvela Corp., priority 2024, dated 2025).

In the case of `O=Cc1c[nH]c2ccccc12` [IAld, indole-3-carboxaldehyde], the AhR activation result at AhR [1] and on AhR [2] was “AhR activation was observed” each time.

As for `O=C(O)C(O)Cc1c[nH]c2ccccc12` (stereo not shown) [ILA, indole-3-lactic acid], the AhR activation result on AhR [1] and at AhR [2] was “AhR activation was observed” in each case.
